Test results from ChEMBL document CHEMBL1128381, “Hypoxia-selective antitumor agents. 10. bis(nitroimidazoles) and related Bis(nitroheterocycles): development of derivatives with higher rates of metabolic activation under hypoxia and improved aqueous solubility” (J Med Chem, 1995).
Calls of active or inactive are those of the source. The rule behind the calls is not given here.

Assays:
CHO-AA8 [1] = experiment: Aerobic growth inhibition in Chinese hamster cell line AA8; type: functional, cell-based; settings: Cricetulus griseus
EMT6 [2] = experiment: Evaluated for hypersensitivity (HF) factor in murine mammary carcinoma EMT6 cells as HF=IC50 for AA8/IC50 for the murine mammary carcinoma EMT6; f means inactive at the solubility limit; type: functional, cell-based; settings: Mus musculus
FME [3] = experiment: Hypersensitivity (HF) factor in human melanoma FME cells [HF= ratio (IC50 in AA8 cells)/(IC50 in FME cells)]; type: functional
[4] = Ratio between aerobic CT10 and hypoxic CT10; No aerobic cytotoxicity at the solubility limit
CHO-AA8 [5] = experiment: Concentration x time (uM h) to reduce cell survival to 10% of control values under hypoxic conditions by clonogenic assay; type: ADME, cell-based, Cricetulus griseus; settings: chinese hamster
UV4 [6] = experiment: Hypersensitivity (HF) factor in chinese hamster cell line UV4 [HF= ratio (IC50 in AA8 cells)/(IC50 in UV4 cells)]; type: functional, Cricetulus griseus
UV4 [7] = experiment: Evaluated for hypersensitivity (HF) factor in chinese hamster cell line UV4; Evaluated as HF=IC50 for AA8/IC50 for the chinese hamster cell line UV4; f means inactive at solubility limit; type: functional, cell-based; settings: Cricetulus griseus
EMT6 [8] = experiment: Hypersensitivity (HF) factor in murine mammary carcinoma EMT6 cells [HF= ratio (IC50 in AA8 cells)/(IC50 in EMT6)]; type: functional, Mus musculus
CHO-AA8 [9] = experiment: Concentration x time (uM h) to reduce cell survival to 10% of control values under hypoxic conditions by clonogenic assay. Inactive at the solubility limit; type: ADME, cell-based, Cricetulus griseus; settings: chinese hamster
FME [10] = experiment: Evaluated for hypersensitivity (HF) factor in human melanoma FME cells as HF=IC50 for AA8/IC50 for the human melanoma FME; f means inactive at the solubility limit; type: functional, cell-based
[11] = Ratio between aerobic CT10 and hypoxic CT10; type: functional

Compound	IC50 (CHO-AA8 [1])	HF (EMT6 [2])	HF (FME [3])	selectivity ratio [4]	CT10 (CHO-AA8 [5])	HF (UV4 [6])	HF (UV4 [7])	HF (EMT6 [8])	CT10 (CHO-AA8 [9])	HF (FME [10])	selectivity ratio [11]
Cc1ncc([N+](=O)[O-])n1CC(O)Cn1ccnc1[N+](=O)[O-] (stereo not drawn)	> 0.8 mM	Inactive at solubility limit	>1.11	> 3	2400 µM·h	>0.85	–	–	–	–	–
Cc1ncc([N+](=O)[O-])n1CCNS(=O)(=O)CCCn1ccnc1[N+](=O)[O-]	> 40.3 mM	–	>0.91	–	–	–	Inactive at solubility limit	>0.84	–	–	–
O=C(NCCCn1ccnc1[N+](=O)[O-])C(=O)NCCCn1ccnc1[N+](=O)[O-]	> 0.08 mM	Inactive at solubility limit	–	–	–	–	Inactive at solubility limit	–	> 700 µM·h	Inactive at solubility limit	–
Cc1ncc([N+](=O)[O-])n1CCNC(=O)CCC(=O)NCCn1ccnc1[N+](=O)[O-]	6.6 mM	–	3.49	> 6	47000 µM·h	1	–	7.09	–	–	–
Cc1ncc([N+](=O)[O-])n1CCN(C)CCCCn1ccnc1[N+](=O)[O-]	1 mM	–	1.54	–	2000 µM·h	0.98	–	1.44	–	–	8
O=[N+]([O-])c1nccn1CC(O)CNCCBr (stereo not drawn)	–	–	1	–	400 µM·h	5.85	–	1.55	–	–	20
O=[N+]([O-])c1nccn1CC(O)CN1CCCCC1 (stereo not drawn) [PIMONIDAZOLE]	3.03 mM	–	4.07	–	3500 µM·h	1.37	–	6.3	–	–	40
O=[N+]([O-])c1nccn1CC1OC(n2ccnc2[N+](=O)[O-])C(O)C(O)C1O (stereo not drawn)	7.4 mM	–	2.44	> 1.5	57000 µM·h	0.89	–	<0.8	–	–	–
C[N+](C)(CCCn1ccnc1[N+](=O)[O-])CCCn1ccnc1[N+](=O)[O-].[I-]	3.65 mM	–	4.85	–	23000 µM·h	0.89	–	24.2	–	–	10
Cc1ncc([N+](=O)[O-])n1CC(O)Cn1cnc([N+](=O)[O-])n1 (stereo not drawn)	2.3 mM	–	3.63	–	> 47000 µM·h	1.16	–	4.85	–	–	–
O=C(CCCn1cnc([N+](=O)[O-])n1)NCCCn1ccnc1[N+](=O)[O-]	5.28 mM	–	5.94	–	17000 µM·h	1.25	–	8.38	–	–	3.5
Cc1ncc([N+](=O)[O-])n1CCNS(=O)(=O)CCCn1cnc([N+](=O)[O-])n1	1.14 mM	–	1.19	–	–	<1.35	–	<1.35	–	–	–
Cc1ncc([N+](=O)[O-])n1CCNC(=O)CCCn1ccnc1[N+](=O)[O-]	–	–	3.51	–	12000 µM·h	1.38	–	4.64	–	–	8
Cc1ncc([N+](=O)[O-])n1CCNCCCCn1ccnc1[N+](=O)[O-]	2 mM	–	1.27	–	2400 µM·h	1.07	–	2.12	–	–	12
CN(CCCn1ccnc1[N+](=O)[O-])CCCn1ccnc1[N+](=O)[O-]	0.81 mM	–	2.55	–	700 µM·h	0.97	–	2.6	–	–	40
Cc1ncc([N+](=O)[O-])n1CCNCCCn1ccnc1[N+](=O)[O-]	4.74 mM	–	3.61	–	2400 µM·h	1.42	–	4.73	–	–	14
O=C(CCCn1ccnc1[N+](=O)[O-])NCCn1cnc([N+](=O)[O-])n1	6.92 mM	–	6.9	> 6	17000 µM·h	1.19	–	10.7	–	–	–
O=C(CCCn1cnc([N+](=O)[O-])n1)NCCn1ccnc1[N+](=O)[O-]	1.71 mM	–	>1.9	> 1	15000 µM·h	1.17	–	1.76	–	–	–
COCC(O)Cn1ccnc1[N+](=O)[O-] (stereo not drawn) [MISONIDAZOLE]	–	–	1.94	–	16000 µM·h	1.37	–	3.6	–	–	18
Cc1ncc([N+](=O)[O-])n1CCN(C)C(=O)CCCn1ccnc1[N+](=O)[O-]	4.8 mM	–	2.83	–	7200 µM·h	1.05	–	2.09	–	–	> 18
O=[N+]([O-])c1nccn1CCCNCCCn1ccnc1[N+](=O)[O-]	1.18 mM	–	2.58	–	2300 µM·h	0.9	–	5.37	–	–	40
Cc1ncc([N+](=O)[O-])n1CCNC(=O)CCCn1cnc([N+](=O)[O-])n1	6.42 mM	–	4.51	–	100000 µM·h	1.2	–	4.94	–	–	> 1.3
